Data on 15 molecules can be found in publication PMC5369532, “NMR-filtered virtual screening leads to non-metal chelating metallo-β-lactamase inhibitors” (Chemical Science, 2016).

The target in assay [1] is T1, VIM-2 (Escherichia coli, UniProt Q5U7L7).
T1 construct: made in house; host or cells: Escherichia coli
Nature of the assay: biochemical. Type of assay: biochemical. Conditions: for differences between the inhibitory activity with or without excess Zn(II): 0 μM, 1 μM and 100 μM Zn(II); for IC50: FC-5 based assay, n ≥ 3. How it is done: (§1) Except where noted, recombinant forms of NDM-1, VIM-2, SPM-1, IMP-1, and BcII MBLs were produced in Escherichia coli and assays were carried out as described previously10. The IC50 values of all the compounds for VIM-2 were determined using […]
(§2) concentrations (0 μM, 1 μM, and 100 μM, see Fig. S8). The selectivity profiles of […]
as described above. The inhibitory activities of these compounds against CphA (B2 […]
(§3) MBL; IMP, Imipenemase; NDM, New Delhi MBL; TEM-1: Temomeira-type 1 […]
(§4) b The enzyme concentrations of the purified proteins were determined by measuring Abs@280nm using a NanoDrop (ThermoFisher) spectrometer and calculated molar extinction coefficient for each sample; concentrations of diluted solutions used in the assay were calculated from the original concentration. […]
(§5) negative controls. These were tested in same assay conditions but at 2mM instead of 100uM compound concentration. […]

Assay [2] has as its target apo-VIM-2 (Escherichia coli, UniProt Q5U7L7). Type of assay: binding. As to conditions: 50 μM apo enzyme, 50 μM compound, 50 mM Tris-D11 pH 7.5. How it is done:
(§6) Except where noted, recombinant forms of NDM-1, VIM-2, SPM-1, IMP-1, and BcII MBLs were produced in Escherichia coli and assays were carried out as described […]
(§7) previously10. […]
(§8) Nuclear Magnetic Resonance (NMR) spectra were recorded using a Bruker AVIII 600 MHz NMR spectrometer equipped with a BB-19F/1H Prodigy N2 cryoprobe using 5 mm diameter NMR tubes (Norell). Typical experimental parameters for Carr-Purcell-Meiboom-Gill (CPMG) NMR spectroscopy were: total echo time, 40 ms; […]
(§9) The PROJECT-CPMG sequence
(§10) (90°x−[τ−180°y−τ−90°y−τ−180°y−τ]n−acq) was applied. 15 Water suppression was achieved by pre-saturation. Data were processed with Bruker 3.1 software. Prior to […]
(§11) Fourier transformation, data were multiplied with an exponential function with 0.5 Hz […]
(§12) line broadening. […]

For assay [3], the target named is T2, di-Zn(II) VIM-2 (Escherichia coli, UniProt Q5U7L7).
T2 construct: made in house
Type of assay: binding. Conditions: 50 μM enzyme, 50 μM Zn(II), 50 μM compound, 50 mM Tris-D11 pH 7.5. How it is done:
as §6, §7, §8, §9, §10, §11, §12

The target of assay [4] is T3, NDM-1 (Klebsiella pneumoniae, UniProt C7C422).
T3 construct: made in house; host or cells: Escherichia coli
In words: NDM-1 inhibition, selectivity profile (FC5 substrate). Type of assay: biochemical. As to conditions: Fig. 4. How it is done:
as §1
(§13) the FC-5 based assay10. […]
(§14) concentrations (0 μM, 1 μM, and 100 μM, see Fig. S8). The selectivity profiles of compounds of interest against other B1 MBLs including VIM-511, VIM-110, NDM-1, SPM-1, and BcII, and TEM-112 (class A SBL) were determined using the same method as described above. The inhibitory activities of these compounds against CphA (B2 […]
(§15) Enzymea Categorya [E]b, (nM) Substrate [Substrate], (μM) […]
(§16) CphA Class B2 MBL 2.5 Meropenem 125 […]
(§17) TEM-1 Class A SBL 2.5 FC5 5 a MBL: Metallo β-lactamase; SBL: serine β-lactamase; VIM, Verona Integron–encoded MBL; IMP, Imipenemase; NDM, New Delhi MBL; TEM-1: Temomeira-type 1 […]
as §4
(§18) negative controls. These were tested in same assay conditions but at 2mM instead of 100uM compound concentration.

In assay [5] the target is CphA (Aeromonas hydrophila, UniProt P26918). In words: biochemical. How it is done:
as §1, §2
(§19) as described above. The inhibitory activities of these compounds against CphA (B2 MBL)13 and L1 (B3 MBL)14 were determined using meropenem and nitrocefin, […]
(§20) at 100 μM. […]
as §3, §4, §5

The target of assay [6] is L1 (Stenotrophomonas maltophilia, UniProt P52700). Nature of the assay: biochemical. How it is done:
as §1, §2, §19, §20, §3, §4, §5

Assay [7] has as its target TEM-1 (Escherichia coli, UniProt P62593). Nature of the assay: TEM-1 inhibition, selectivity profile (FC5 substrate). Type of assay: biochemical. As to conditions: Fig. 4.
Assay [8] has as its target SPM-1 (Pseudomonas aeruginosa, UniProt Q8G9Q0). In words: SPM-1 inhibition, selectivity profile (FC5 substrate). Type of assay: biochemical. As to conditions: Fig. 4. How it is done: as §1, §13, §14, §15, §16, §17, §4, §18
Assay [9] deals with VIM-1 (Pseudomonas aeruginosa, UniProt A0A0F7KYQ8). In words: biochemical. As to conditions: n ≥ 3.
Assay [10] addresses T4, BcII (Bacillus cereus, UniProt P04190).
T4 construct: made in house; host or cells: Escherichia coli
In words: BcII inhibition, selectivity profile (FC5 substrate). Type of assay: biochemical. Conditions: Fig. 4. How it is done: as §1, §13, §14, §15, §16, §17, §4, §18

For assay [11], the system named is class B MBLs. In words: Selectivity profile against class B MBLs (Fig. S21). Type of assay: biochemical. How it is done:
The 1H NMR and 13C NMR spectra for compounds 34a, 34b, 34, 35a, 35b, and 35 […]
as §1, §13
concentrations (0 μM, 1 μM, and 100 μM, see Fig. S8). The selectivity profiles of compounds of interest against other B1 MBLs including VIM-511, VIM-110, NDM-1, SPM-1, and BcII, and TEM-112 (class A SBL) were determined using the same method as described above. The inhibitory activities of these compounds against CphA (B2 MBL)13 and L1 (B3 MBL)14 were determined using meropenem and nitrocefin, […]
at 100 μM. The details regarding enzyme concentrations, substrate concentration are in […]
Nuclear Magnetic Resonance (NMR) spectra were recorded using a Bruker AVIII 600 MHz NMR spectrometer equipped with a BB-19F/1H Prodigy N2 cryoprobe using 5 mm diameter NMR tubes (Norell). Typical experimental parameters for Carr-Purcell-Meiboom-Gill (CPMG) NMR spectroscopy were: total echo time, 40 ms; relaxation delay, 2 s; and number of transients, 128. The PROJECT-CPMG sequence (90°x−[τ−180°y−τ−90°y−τ−180°y−τ]n−acq) was applied. 15 Water suppression was achieved by pre-saturation. Data were processed with Bruker 3.1 software. Prior to […]

[12] abbreviates: read-out: pIC50 (VIM-2) (converted).

“Also recorded” adds a separate entry of the source. Read-outs that look alike come from different tables or passages of the source. Where only a bound is given, the exact number is not on record here.

T4 sequence (P04190 31-257): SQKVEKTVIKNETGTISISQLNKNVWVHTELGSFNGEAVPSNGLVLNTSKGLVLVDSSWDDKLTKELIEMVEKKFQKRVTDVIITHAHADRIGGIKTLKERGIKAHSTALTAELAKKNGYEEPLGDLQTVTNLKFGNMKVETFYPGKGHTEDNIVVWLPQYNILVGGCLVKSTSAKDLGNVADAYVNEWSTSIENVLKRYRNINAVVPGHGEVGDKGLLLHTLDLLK
Sequence of TEM-1 (P62593 24-286 limits assumed): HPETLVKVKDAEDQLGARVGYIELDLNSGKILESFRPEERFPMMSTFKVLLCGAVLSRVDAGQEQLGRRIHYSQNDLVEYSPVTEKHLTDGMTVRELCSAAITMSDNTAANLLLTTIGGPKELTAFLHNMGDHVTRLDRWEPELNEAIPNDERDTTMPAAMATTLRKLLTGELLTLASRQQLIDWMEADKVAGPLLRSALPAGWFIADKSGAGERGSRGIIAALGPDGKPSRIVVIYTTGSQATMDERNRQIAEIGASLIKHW
T3 sequence (C7C422 29-270, looked up, species assumed): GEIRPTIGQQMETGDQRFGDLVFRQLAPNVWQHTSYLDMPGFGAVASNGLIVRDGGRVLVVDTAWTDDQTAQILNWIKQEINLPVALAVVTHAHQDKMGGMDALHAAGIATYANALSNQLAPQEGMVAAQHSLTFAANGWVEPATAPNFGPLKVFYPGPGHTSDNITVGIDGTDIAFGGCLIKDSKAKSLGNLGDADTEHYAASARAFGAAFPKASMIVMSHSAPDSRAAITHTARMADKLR
Sequence of SPM-1 (Q8G9Q0 entry or part of it): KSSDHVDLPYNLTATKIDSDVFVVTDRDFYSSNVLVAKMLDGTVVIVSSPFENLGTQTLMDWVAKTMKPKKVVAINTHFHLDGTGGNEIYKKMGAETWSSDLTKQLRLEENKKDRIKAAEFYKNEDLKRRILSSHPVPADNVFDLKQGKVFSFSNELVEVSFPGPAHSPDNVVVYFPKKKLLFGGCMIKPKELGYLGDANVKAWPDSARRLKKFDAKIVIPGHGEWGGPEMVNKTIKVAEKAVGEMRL
Sequence of CphA (P26918 28-254): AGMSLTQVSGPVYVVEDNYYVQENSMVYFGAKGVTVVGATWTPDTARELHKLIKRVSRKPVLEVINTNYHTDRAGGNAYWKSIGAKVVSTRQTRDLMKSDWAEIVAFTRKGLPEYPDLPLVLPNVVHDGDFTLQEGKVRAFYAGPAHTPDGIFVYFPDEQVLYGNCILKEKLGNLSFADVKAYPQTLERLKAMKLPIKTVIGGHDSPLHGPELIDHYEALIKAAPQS
Sequence of L1 (P52700 34-290): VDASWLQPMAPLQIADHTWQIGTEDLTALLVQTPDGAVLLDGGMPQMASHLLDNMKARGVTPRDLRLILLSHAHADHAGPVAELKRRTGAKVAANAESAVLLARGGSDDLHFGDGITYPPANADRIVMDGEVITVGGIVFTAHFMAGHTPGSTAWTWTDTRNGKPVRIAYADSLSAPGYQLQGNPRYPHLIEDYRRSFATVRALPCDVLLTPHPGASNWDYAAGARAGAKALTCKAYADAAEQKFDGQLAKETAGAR

`O=C(Cc1ccc(Cl)cc1)c1ccc(O)cc1O` [Compound 6]: the “differences between the inhibitory activity with or without excess Zn(II)” value in assay [1] is “no obvious differences”. The IC50 in assay [1] (read-out: IC50 (VIM-2)) was 111 µM. Moreover, the “binding to apo-VIM-2 by 1H CPMG NMR” value in assay [2] was “strong binding; also recorded: binds”. Moreover, the “binding to di-Zn(II) VIM-2 by 1H CPMG NMR” value in assay [3] was “strong binding; also recorded: strong binder”.

On to `O=C(O)c1cccc2c1C(=O)N(c1cccc(C(F)(F)F)c1)C2` [Compound 17], for which the IC50 in assay [4] is above 400 µM; in assay [5], above 400 µM; in assay [6] it was above 400 µM; in assay [1] (read-out: IC50 (VIM-2)) it was 32.8 µM; in assay [8] it was above 400 µM; in assay [9], above 400 µM. Also, the IC50 in assay [10] was above 400 µM. For the same molecule, the “inhibition of class A serine β-lactamase TEM-1 (in words)” value in assay [7] is recorded as “no inhibition was observed”. Also, the “differences between the inhibitory activity with or without excess Zn(II)” value in assay [1] is reported as “no obvious differences”. In addition, the “binding to apo-VIM-2 by 1H CPMG NMR” value in assay [2] was “binding and bind”. Moreover, the “binding to di-Zn(II) VIM-2 by 1H CPMG NMR” value in [3] was “binding and bind”.

Take `CN(C)c1ccc(/C=C/C(=O)c2ccccc2C(=O)O)cc1` [Compound 13]: in [1], the “differences between the inhibitory activity with or without excess Zn(II)” value is recorded as “no obvious differences”. For the same molecule, in assay [1] (read-out: IC50 (VIM-2)), the IC50 is 135 µM. In assay [2], the “binding to apo-VIM-2 by 1H CPMG NMR” value is “weak binding; also recorded: weakly”. The “binding to di-Zn(II) VIM-2 by 1H CPMG NMR” value in [3] was “strong binding; also recorded: binds strongly”. In assay [11], the “inhibition of the tested class B MBLs (in words)” value is on record as “broad-spectrum inhibition”.

Regarding `O=C(O)c1cccc(/C=N/N=C/c2cccc(C(=O)O)c2O)c1O` [Compound 18], the IC50 in [1] (read-out: IC50 (VIM-2)) came to 117 µM. In addition, the “binding to apo-VIM-2 by 1H CPMG NMR” value in assay [2] is reported as “binding; also recorded: binds”. For the same molecule, the “binding to di-Zn(II) VIM-2 by 1H CPMG NMR” value in [3] is “binding; also recorded: binds”.

Regarding `O=C(O)c1cccc2c1C(=O)N(Cc1c(F)cccc1Cl)C2` [Compound 16], the IC50 in assay [4], in assay [5], in [6], in assay [8] and in [10] was above 400 µM each time. In [7], the “inhibition of class A serine β-lactamase TEM-1 (in words)” value is given as “no inhibition was observed”.

Take `O=C(O)C(=Cc1ccc(-c2ccc(Cl)cc2)o1)C(=O)O` [Compound 12]: in assay [1], the “differences between the inhibitory activity with or without excess Zn(II)” value was “no obvious differences”. Also, the IC50 in [1] (read-out: IC50 (VIM-2)) came to 87 µM. In assay [2], the “binding to apo-VIM-2 by 1H CPMG NMR” value is on record as “weak binding; also recorded: weakly”. For the same molecule, the “binding to di-Zn(II) VIM-2 by 1H CPMG NMR” value in [3] is recorded as “strong binding; also recorded: binds strongly”. In addition, in [11], the “inhibition of the tested class B MBLs (in words)” value is “broad-spectrum inhibition”.

Consider `O=C(O)c1cccc2c1C(=O)N(Cc1ccccc1F)C2` [Compound 24], for which the IC50 in [1] (read-out: IC50 (VIM-2)) is 47.1 µM; in [9] it was above 400 µM.

In the case of `O=C(O)c1cccc2c1C(=O)N(CCc1ccccc1)C2` [Compound 39], the results for the IC50 in assay [1] (read-out: IC50 (VIM-2)) and in assay [9] were 71.9 µM and above 400 µM, respectively.

In the case of `C[C@H](CS)C(=O)N1CCC[C@H]1C(=O)O` [L-Captopril, reference compound], in [2], the “binding to apo-VIM-2 by 1H CPMG NMR” value is recorded as “very weak binding; also recorded: very weakly”. Besides, the “binding to di-Zn(II) VIM-2 by 1H CPMG NMR” value in assay [3] is reported as “strong binding; also recorded: binds strongly”.

Consider `COc1ccc(CN2Cc3cccc(C(=O)O)c3C2=O)cc1OC` [Compound 25], for which the IC50 was 320 µM in assay [1] (read-out: IC50 (VIM-2)), 316 µM in [1] (setting [12]) and above 400 µM in [9].

For the molecule `COc1cccc(N2Cc3cccc(C(=O)O)c3C2=O)c1` [Compound 32], the IC50 in [1] (read-out: IC50 (VIM-2)) is 39.3 µM; in assay [9] it was above 400 µM.

`CC(c1ccccc1)N1Cc2cccc(C(=O)O)c2C1=O` (centres unmarked) [Compound 28]: the IC50 in assay [1] (read-out: IC50 (VIM-2)) is 168 µM; in assay [1] (setting [12]) it was 166 µM; in assay [9] it was above 400 µM.

In the case of `O=C(O)c1cccc2c1C(=O)N(Cc1cccs1)C2` [Compound 36], the IC50 was 153 µM in assay [1] (read-out: IC50 (VIM-2)) and above 400 µM in [9].

As for `NC(=S)N/N=C1\C(=O)Nc2c(C(=O)O)cccc21` [Compound 7], the “differences between the inhibitory activity with or without excess Zn(II)” value in [1] is on record as “no obvious differences”. Also, in assay [1] (read-out: IC50 (VIM-2)), the IC50 came to 199 µM. For the same molecule, the “binding to apo-VIM-2 by 1H CPMG NMR” value in [2] was “binding”. In addition, the “binding to di-Zn(II) VIM-2 by 1H CPMG NMR” value in assay [3] is reported as “binding; also recorded: binds”.

Turning to `C=CCC1c2cccc(C(=O)O)c2C(=O)N1c1cccc(OC)c1` (centres unmarked) [Compound 42], the results for the IC50 in assay [1] (read-out: IC50 (VIM-2)) and in [9] were 20.3 µM and above 400 µM, respectively.
